Reference: US11547681B2, “N-acylethanolamide derivatives and uses thereof” (ELIEM THERAPEUTICS, INC., priority 2016, dated 2023)

Experiment: in vitro
Conditions: for Concentration (μM) of analyte PEA, 0 min / Concentration (μM) of analyte PEA, 10 min / Concentration (μM) of analyte PEA, 20 min / Concentration (μM) of analyte PEA, 30 min / Concentration (μM) of analyte PEA, 60 min / % Remaining of Initial (n = 1), 0 min / % Remaining of Initial (n = 1), 10 min / % Remaining of Initial (n = 1), 20 min / % Remaining of Initial (n = 1), 30 min / % Remaining of Initial (n = 1), 60 min: 1 μM; for % Remaining of Initial (n = 1), 0 min: s9, 0 h; for % Remaining of Initial (n = 1), 10 min: s9, 10 min; for % Remaining of Initial (n = 1), 20 min: s9, 20 min; for % Remaining of Initial (n = 1), 30 min: s9, 0.5 h; for % Remaining of Initial (n = 1), 60 min: s9, 1 h; for half-life at 1 μM: s9, Half-life (min)
Protocol: Reaction mixture, minus cofactors, was prepared as described below. Test article was added into the reaction mixture at a final concentration of 1 μM. […] An aliquot of the reaction mixture (without cofactor cocktail) was equilibrated in a shaking water bath at 37° C. for 3 minutes. The reaction was initiated by the addition of cofactor cocktail (see below), and the mixture was then incubated in a shaking water bath at 37° C. Aliquots (100 μL) were withdrawn 0, 10, 20, 30 and 60 minutes. Test article samples were immediately combined with 300 μL of ice-cold acetonitrile containing 1% formic acid. Control samples were immediately combined with 400 μL of ice-cold 50/50 acetonitrile (ACN)/dH2O containing 0.1% formic acid and internal standard to terminate the reaction. Samples were then mixed and centrifuged to precipitate proteins. Calibration standards were prepared in matched matrix. Samples and standards were assayed by LC-MS/MS using electrospray ionization for both the dosed prodrug and the expected drug (PEA). Analytical conditions are outlined in Appendix 8-1. Test article concentration at each time point was compared to the test article concentration at time 0 to determine the percent remaining at each time point. Half-lives were calculated using GraphPad software, fitting to a single-phase exponential decay equation.
Reaction mixture, minus cofactors, was prepared as described below. Test article was added into the reaction mixture at a final concentration of 1 μM. […] An aliquot of the reaction mixture (without cofactor cocktail) was equilibrated in a shaking water bath at 37° C. for 5 minutes. Reaction was initiated by the addition of cofactor cocktail (see below), and mixture was then incubated in a shaking water bath at 37° C. Aliquots (100 μL) were withdrawn at 0, 10, 20, 30, and 60 minutes. Test article samples were immediately combined with 300 μL of ice-cold acetonitrile containing 1% formic acid. Control samples were immediately combined with 400 μL of ice-cold 50/50 acetonitrile (ACN)/dH2O containing 0.1% formic acid and internal standard to terminate the reaction. Samples were then mixed and centrifuged to precipitate proteins. Calibration standards were prepared in matched matrix. Samples and standards were assayed by LC-MS/MS using electrospray ionization for both dosed prodrug and expected drug (PEA). Analytical conditions are outlined in Appendix 10-1. Test article concentration at each time point was compared to test article concentration at time 0 to determine the percent remaining at each time point. Half-lives were calculated using GraphPad software, fitting to a single-phase exponential decay equation.
The reaction mixture, minus cofactors, was prepared as described below. Test article was added into the reaction mixture at a final concentration of 1 μM. […] An aliquot of the reaction mixture (without cofactor cocktail) was equilibrated in a shaking water bath at 37° C. for 3 minutes. Reaction was initiated by the addition of cofactor cocktail (see below), and the mixture was then incubated in a shaking water bath at 37° C. Aliquots (100 μL) were withdrawn at 0, 10, 20, 30, and 60 minutes. Test article samples were immediately combined with 300 μL of ice-cold acetonitrile containing 1% formic acid. Control samples were immediately combined with 400 μL of ice-cold 50/50 acetonitrile (ACN)/dH2O containing 0.1% formic acid and internal standard to terminate the reaction. Samples were then mixed and centrifuged to precipitate proteins. Calibration standards were prepared in matched matrix. Samples and standards were assayed by LC-MS/MS using electrospray ionization for both dosed prodrug and expected drug (PEA). Analytical conditions are outlined in Appendix 13-1. Test article concentration at each time point was compared to the test article concentration at time 0 to determine the percent remaining at each time point.

CCCCCCCCCCCCCCCC(=O)NCCOC(=O)CCC [Compound I-2]
Concentration (μM) of analyte PEA, 0 min (both, human): 0.20 µM
Concentration (μM) of analyte PEA, 10 min (both, human): 0.23 µM
Concentration (μM) of analyte PEA, 20 min (both, human): 0.18 µM
Concentration (μM) of analyte PEA, 30 min (both, human): 0.096 µM
Concentration (μM) of analyte PEA, 60 min (both, human): 0.033 µM
% Remaining of Initial (n = 1), 0 min (both, human): 100%
% Remaining of Initial (n = 1), 10 min (both, human): 6.0%
% Remaining of Initial (n = 1), 20 min (both, human): 1.3%
% Remaining of Initial (n = 1), 30 min (both, human): <1.0%
% Remaining of Initial (n = 1), 60 min (both, human): <1.0%
Concentration (μM) of analyte PEA, 0 min (male, Beagle, dog): 0.23 µM
Concentration (μM) of analyte PEA, 10 min (male, Beagle, dog): 0.38 µM
Concentration (μM) of analyte PEA, 20 min (male, Beagle, dog): 0.35 µM
Concentration (μM) of analyte PEA, 30 min (male, Beagle, dog): 0.21 µM
Concentration (μM) of analyte PEA, 60 min (male, Beagle, dog): 0.11 µM
% Remaining of Initial (n = 1), 0 min (male, Beagle, dog): 100%
% Remaining of Initial (n = 1), 10 min (male, Beagle, dog): 5.1%
% Remaining of Initial (n = 1), 20 min (male, Beagle, dog): 2.0%
% Remaining of Initial (n = 1), 30 min (male, Beagle, dog): <1.0%
% Remaining of Initial (n = 1), 60 min (male, Beagle, dog): <1.0%
Concentration (μM) of analyte PEA, 0 min (male, CD-1, mouse): 0.51 µM
Concentration (μM) of analyte PEA, 10 min (male, CD-1, mouse): 0.26 µM
Concentration (μM) of analyte PEA, 20 min (male, CD-1, mouse): 0.19 µM
Concentration (μM) of analyte PEA, 30 min (male, CD-1, mouse): 0.12 µM
Concentration (μM) of analyte PEA, 60 min (male, CD-1, mouse): 0.022 µM
% Remaining of Initial (n = 1), 0 min (male, CD-1, mouse): 100%
% Remaining of Initial (n = 1), 10 min (male, CD-1, mouse): <1.0%
% Remaining of Initial (n = 1), 20 min (male, CD-1, mouse): <1.0%
% Remaining of Initial (n = 1), 30 min (male, CD-1, mouse): <1.0%
% Remaining of Initial (n = 1), 60 min (male, CD-1, mouse): <1.0%
half-life at 1 μM (male, CD-1, mouse): < 0.0167 h
Concentration (μM) of analyte PEA, 0 min (male, Sprague-Dawley, rat): 0.50 µM
Concentration (μM) of analyte PEA, 10 min (male, Sprague-Dawley, rat): 0.31 µM
Concentration (μM) of analyte PEA, 20 min (male, Sprague-Dawley, rat): 0.17 µM
Concentration (μM) of analyte PEA, 30 min (male, Sprague-Dawley, rat): 0.11 µM
Concentration (μM) of analyte PEA, 60 min (male, Sprague-Dawley, rat): 0.023 µM
% Remaining of Initial (n = 1), 0 min (male, Sprague-Dawley, rat): 100%
% Remaining of Initial (n = 1), 10 min (male, Sprague-Dawley, rat): <1.0%
% Remaining of Initial (n = 1), 20 min (male, Sprague-Dawley, rat): <1.0%
% Remaining of Initial (n = 1), 30 min (male, Sprague-Dawley, rat): <1.0%
% Remaining of Initial (n = 1), 60 min (male, Sprague-Dawley, rat): <1.0%
half-life at 1 μM (male, Sprague-Dawley, rat): < 0.0167 h

CCCCCCCCCCCCCCCC(=O)NCCOC(=O)CCC(=O)OCC(COC(=O)CCCCCCC)OC(=O)CCCCCCC (stereo not shown) [Compound I-3, PEA-Succinate-Glycerol-Di-Caprylic]
Concentration (μM) of analyte PEA, 0 min (both, human): 0.00032 µM
Concentration (μM) of analyte PEA, 10 min (both, human): 0.0058 µM
Concentration (μM) of analyte PEA, 20 min (both, human): 0.017 µM
Concentration (μM) of analyte PEA, 30 min (both, human): 0.015 µM
Concentration (μM) of analyte PEA, 60 min (both, human): 0.0096 µM
% Remaining of Initial (n = 1), 0 min (both, human): 100%
% Remaining of Initial (n = 1), 10 min (both, human): 104%
% Remaining of Initial (n = 1), 20 min (both, human): 89%
% Remaining of Initial (n = 1), 30 min (both, human): 95%
% Remaining of Initial (n = 1), 60 min (both, human): 66%
half-life at 1 μM (both, human): > 1 h
Concentration (μM) of analyte PEA, 0 min (male, Beagle, dog): 0.010 µM
Concentration (μM) of analyte PEA, 10 min (male, Beagle, dog): 0.030 µM
Concentration (μM) of analyte PEA, 20 min (male, Beagle, dog): 0.035 µM
Concentration (μM) of analyte PEA, 30 min (male, Beagle, dog): 0.031 µM
Concentration (μM) of analyte PEA, 60 min (male, Beagle, dog): 0.029 µM
% Remaining of Initial (n = 1), 0 min (male, Beagle, dog): 100%
% Remaining of Initial (n = 1), 10 min (male, Beagle, dog): 104%
% Remaining of Initial (n = 1), 20 min (male, Beagle, dog): 89%
% Remaining of Initial (n = 1), 30 min (male, Beagle, dog): 80%
% Remaining of Initial (n = 1), 60 min (male, Beagle, dog): 86%
half-life at 1 μM (male, Beagle, dog): > 1 h
Concentration (μM) of analyte PEA, 0 min (male, CD-1, mouse): 0.013 µM
Concentration (μM) of analyte PEA, 10 min (male, CD-1, mouse): 0.031 µM
Concentration (μM) of analyte PEA, 20 min (male, CD-1, mouse): 0.022 µM
Concentration (μM) of analyte PEA, 30 min (male, CD-1, mouse): 0.023 µM
Concentration (μM) of analyte PEA, 60 min (male, CD-1, mouse): 0.025 µM
% Remaining of Initial (n = 1), 0 min (male, CD-1, mouse): 100%
% Remaining of Initial (n = 1), 10 min (male, CD-1, mouse): 82%
% Remaining of Initial (n = 1), 20 min (male, CD-1, mouse): 61%
% Remaining of Initial (n = 1), 30 min (male, CD-1, mouse): 78%
% Remaining of Initial (n = 1), 60 min (male, CD-1, mouse): 61%
half-life at 1 μM (male, CD-1, mouse): > 1 h
half-life at 1 μM (male, CD-1, mouse, calculated half-life in parentheses): 1.45 h
Concentration (μM) of analyte PEA, 0 min (male, Sprague-Dawley, rat): 0.015 µM
Concentration (μM) of analyte PEA, 10 min (male, Sprague-Dawley, rat): 0.045 µM
Concentration (μM) of analyte PEA, 20 min (male, Sprague-Dawley, rat): 0.033 µM
Concentration (μM) of analyte PEA, 30 min (male, Sprague-Dawley, rat): 0.017 µM
Concentration (μM) of analyte PEA, 60 min (male, Sprague-Dawley, rat): 0.013 µM
% Remaining of Initial (n = 1), 0 min (male, Sprague-Dawley, rat): 100%
% Remaining of Initial (n = 1), 10 min (male, Sprague-Dawley, rat): 66%
% Remaining of Initial (n = 1), 20 min (male, Sprague-Dawley, rat): 69%
% Remaining of Initial (n = 1), 30 min (male, Sprague-Dawley, rat): 71%
% Remaining of Initial (n = 1), 60 min (male, Sprague-Dawley, rat): 52%
half-life at 1 μM (male, Sprague-Dawley, rat): > 1 h
half-life at 1 μM (male, Sprague-Dawley, rat, calculated half-life in parentheses): 1.2 h
